PubChem BioAssay AID276 (DTP/NCI, 2004)
Where “and” joins values, the source holds several entries; their conditions need not be identical. Identical values can stand only once. Toxic doses and inconclusive results are not listed.

Test system: B6C3F1 mice, Lewis lung carcinoma iv, survival T/C
Experiment: NCI In Vivo Anticancer Drug Screen. Data for tumor model Lewis Lung Carcinoma (intravenous) in B6C3F1 mice
Details: endpoint: median survival time, schedule: Q01DX009 (ip), higher = longer survival
Protocol: The antitumor activity of compounds was measured in mice bearing transplantable tumors. Survival or tumor size were measured and the results are expressed as the measurement made in the treated group (T) divided by the measurement made in the vehicle treated control group (C). The tumor model used in this assay is Lewis Lung Carcinoma (intravenous) in B6C3F1 mice

[1] = dose: 6.25 mg/kg/injection, vehicle: distilled water + Tween-80
[2] = dose: 12.5 mg/kg/injection, vehicle: distilled water + Tween-80
[3] = dose: 100.0 mg/kg/injection, vehicle: Klucel (hydroxypropylcellulose) (HPC)
[4] = dose: 200.0 mg/kg/injection, vehicle: Klucel (hydroxypropylcellulose) (HPC)

CC(=O)C1=C(O)C2(O)C(=O)c3c(c(C)c4ccc(C)c(O)c4c3O)CC2C(N)C1=O (configuration not stated)
T/C (dose: 3.75 mg/kg/injection, vehicle: saline + alcohol): 95 % of control and 105 % of control | T/C (dose: 7.3 mg/kg/injection, vehicle: saline + alcohol): 102 % of control | T/C (dose: 7.5 mg/kg/injection, vehicle: saline + alcohol): 95 % of control | T/C (dose: 15.0 mg/kg/injection, vehicle: saline + alcohol): 102 % of control and 107 % of control | T/C (dose: 30.0 mg/kg/injection, vehicle: saline + alcohol): 98 % of control and 107 % of control | T/C (dose: 60.0 mg/kg/injection, vehicle: saline + alcohol): 102 % of control and 110 % of control | T/C (dose: 120.0 mg/kg/injection, vehicle: saline + alcohol): 112 % of control

COc1ccc2c(c1)CCn1c(C)c(COC(=O)NC(C)C)c(COC(=O)NC(C)C)c1-2
T/C (dose: 3.12 mg/kg/injection, vehicle: distilled water + Tween-80): 102 % of control | T/C [1]: 99 % of control | T/C [2]: 87 % of control

CC(C)N1CC(COc2cccc3ccccc23)OP1(=O)N(CCCl)CCCl (configuration not stated)
T/C (dose: 1.56 mg/kg/injection, vehicle: distilled water + Tween-80): 98 % of control | T/C (dose: 3.13 mg/kg/injection, vehicle: distilled water + Tween-80): 96 % of control | T/C [1]: 101 % of control | T/C [2]: 102 % of control | T/C (dose: 25.0 mg/kg/injection, vehicle: distilled water + Tween-80): 102 % of control | T/C (dose: 50.0 mg/kg/injection, vehicle: distilled water + Tween-80): 95 % of control | T/C (dose: 100.0 mg/kg/injection, vehicle: distilled water + Tween-80): 106 % of control | T/C (dose: 200.0 mg/kg/injection, vehicle: distilled water + Tween-80): 90 % of control | T/C (dose: 400.0 mg/kg/injection, vehicle: distilled water + Tween-80): 90 % of control

N#CC(OC1OC(COC2OC(CO)C(O)C(O)C2O)C(O)C(O)C1O)c1ccccc1 (configuration not stated)
T/C (dose: 25.0 mg/kg/injection, vehicle: water): 92 % of control | T/C (dose: 50.0 mg/kg/injection, vehicle: water): 97 % of control | T/C (dose: 100.0 mg/kg/injection, vehicle: water): 98 % of control | T/C (dose: 200.0 mg/kg/injection, vehicle: water): 98 % of control | T/C (dose: 400.0 mg/kg/injection, vehicle: water): 98 % of control | T/C (dose: 800.0 mg/kg/injection, vehicle: water): 98 % of control

NC(=O)CCC(N)C(=O)O (configuration not stated)
T/C (dose: 25.0 mg/kg/injection, vehicle: suspension in saline): 109 % of control | T/C (dose: 50.0 mg/kg/injection, vehicle: suspension in saline): 111 % of control | T/C (dose: 100.0 mg/kg/injection, vehicle: suspension in saline): 107 % of control | T/C (dose: 200.0 mg/kg/injection, vehicle: suspension in saline): 102 % of control | T/C (dose: 400.0 mg/kg/injection, vehicle: suspension in saline): 94 % of control

CN=C(N)N/N=C(\C)c1ccc2c(c1)Cc1cc(/C(C)=N/NC(N)=NC)ccc1-2
T/C (dose: 0.37 mg/kg/injection, vehicle: saline with Tween-80): 95 % of control | T/C (dose: 0.75 mg/kg/injection, vehicle: saline with Tween-80): 97 % of control | T/C (dose: 1.5 mg/kg/injection, vehicle: saline with Tween-80): 94 % of control | T/C (dose: 3.0 mg/kg/injection, vehicle: saline with Tween-80): 100 % of control

O=NN(CCCl)C(=O)NC1CCCCC1
T/C (dose: 1.0 mg/kg/injection, vehicle: Klucel (hydroxypropylcellulose) (HPC)): 98 % of control | T/C (dose: 2.0 mg/kg/injection, vehicle: Klucel (hydroxypropylcellulose) (HPC)): 112 % of control and 120 % of control | T/C (dose: 2.0 mg/kg/injection, vehicle: other): 108 % of control | T/C (dose: 4.0 mg/kg/injection, vehicle: other): 100 % of control | T/C (dose: 8.0 mg/kg/injection, vehicle: Klucel (hydroxypropylcellulose) (HPC)): 295 % of control and 314 % of control | T/C (dose: 8.0 mg/kg/injection, vehicle: other): 100 % of control | T/C (dose: 16.0 mg/kg/injection, vehicle: other): 119 % of control | T/C (dose: 32.0 mg/kg/injection, vehicle: other): 166 % of control

C1OCN2CSCC12 (configuration not stated)
T/C (dose: 12.5 mg/kg/injection, vehicle: saline with Tween-80): 103 % of control | T/C (dose: 25.0 mg/kg/injection, vehicle: saline with Tween-80): 103 % of control | T/C (dose: 50.0 mg/kg/injection, vehicle: saline with Tween-80): 102 % of control | T/C (dose: 100.0 mg/kg/injection, vehicle: saline with Tween-80): 98 % of control | T/C (dose: 200.0 mg/kg/injection, vehicle: saline with Tween-80): 96 % of control | T/C (dose: 400.0 mg/kg/injection, vehicle: saline with Tween-80): 89 % of control

Oc1c(Cl)cc(Cl)cc1C=NCCSc1ccc(Cl)cc1
T/C (dose: 25.0 mg/kg/injection, vehicle: Klucel (hydroxypropylcellulose) (HPC)): 94 % of control and 105 % of control | T/C (dose: 50.0 mg/kg/injection, vehicle: Klucel (hydroxypropylcellulose) (HPC)): 98 % of control and 101 % of control | T/C [3]: 97 % of control and 101 % of control | T/C [4]: 97 % of control and 105 % of control | T/C (dose: 400.0 mg/kg/injection, vehicle: Klucel (hydroxypropylcellulose) (HPC)): 101 % of control

CO[C@H](/C(C)=C/C=C/C(C)=C/c1coc(C)n1)[C@H](C)[C@H]1C[C@@H](O)[C@@]2(C)O[C@H]2/C=C/[C@@H](C)[C@@H]2C[C@@H](CC(=O)O2)C[C@H]2O[C@@H]2C(=O)O1
T/C (dose: 20.0 micrograms/kg/injection, vehicle: Klucel (hydroxypropylcellulose) (HPC)): 96 % of control | T/C (dose: 40.0 micrograms/kg/injection, vehicle: Klucel (hydroxypropylcellulose) (HPC)): 103 % of control | T/C (dose: 80.0 micrograms/kg/injection, vehicle: Klucel (hydroxypropylcellulose) (HPC)): 105 % of control

COC(=O)Nc1cn2ccc(C(Cl)=C(Cl)Cl)cc2n1
T/C [3]: 116 % of control | T/C [4]: 103 % of control

Cn1/c2cc/c1=C(\c1ccc(S(=O)(=O)O)cc1)c1ccc([n-]1)/C(c1ccc(S(=O)(=O)O)cc1)=c1/cc/c([nH]1)=C(\c1ccc(S(=O)(=O)O)cc1)c1ccc([n-]1)/C=2c1ccc(S(=O)(=O)O)cc1.O.O=S(=O)(O)C(F)(F)F.[Cu+2]
T/C (dose: 6.25 mg/kg/injection, vehicle: saline): 109 % of control | T/C (dose: 12.5 mg/kg/injection, vehicle: saline): 112 % of control | T/C (dose: 25.0 mg/kg/injection, vehicle: saline): 116 % of control | T/C (dose: 50.0 mg/kg/injection, vehicle: saline): 112 % of control

C=C/C(C)=C/[C@H](C)C(=O)C[C@H](O)CC1CC(=O)NC(=O)C1
T/C (dose: 6.25 mg/kg/injection, vehicle: other): 96 % of control | T/C (dose: 12.5 mg/kg/injection, vehicle: other): 96 % of control | T/C (dose: 25.0 mg/kg/injection, vehicle: other): 97 % of control | T/C (dose: 50.0 mg/kg/injection, vehicle: other): 92 % of control | T/C (dose: 100.0 mg/kg/injection, vehicle: other): 96 % of control | T/C (dose: 200.0 mg/kg/injection, vehicle: other): 100 % of control

CCCCCCCC(=O)OCC(=O)[C@]1(O)Cc2c(O)c3c(c(O)c2[C@@H](OC2CC(N)C(O)C(C)O2)C1)C(=O)c1c(OC)cccc1C3=O (some centres not stated)
T/C (dose: 1.0 mg/kg/injection, vehicle: saline): 102 % of control | T/C (dose: 1.0 mg/kg/injection, vehicle: suspension in saline): 120 % of control | T/C (dose: 2.0 mg/kg/injection, vehicle: saline): 124 % of control | T/C (dose: 2.0 mg/kg/injection, vehicle: suspension in saline): 112 % of control
